Results published in patent US9839614B2, “Nanoparticle and polymer formulations for thyroid hormone analogs, antagonists, and formulations and uses thereof” (NANOPHARMACEUTICALS LLC, priority 2009, dated 2017).
Where “and” joins values, the source holds several entries; their conditions need not be identical. Equal entries are not always repeated.

Assays:
[1] = system: chick chorioallantoic membrane (CAM) blood vessel branching; test: Chorioallantoic membrane (CAM) model of angiogenesis; format: in vivo; conditions: for ANGIOGENESIS INDEX: n = 8 per group; for effect on angiogenesis, representative illustrations (FIG. 23): in vivo
Experimental: In vivo neovascularization was examined by methods described previously. 9-12 Ten-day-old chick embryos were purchased from SPAFAS (Preston, Conn.) and incubated at 37° C. with 55% relative humidity. A hypodermic needle was used to make a small hole in the shell concealing the air sac, and a second hole was made on the broad side of the egg, directly over an avascular portion of the embryonic membrane that was identified by candling. A false air sac was created beneath the second hole by the application of negative pressure at the first hole, causing the CAM to separate from the shell. A window approximately 1.0 cm^2 was cut in the shell over the dropped CAM with a small-crafts grinding wheel (Dremel, division of Emerson Electric Co.), allowing direct access to the underlying CAM. […] Sterile disks of No. 1 filter paper (Whatman International) were pretreated with 3 mg/mL cortisone acetate and 1 mmol/L PTU and air dried under sterile conditions. Thyroid hormone, hormone analogs, FGF2 or control solvents, and inhibitors were then applied to the disks and the disks allowed to dry. The disks were then suspended in PBS and placed on growing CAMs. […] At 24 hours, the MAPK cascade inhibitor PD 98059 was also added to CAMs topically by means of the filter disks.
After incubation at 37° C. with 55% relative humidity for 3 days, the CAM tissue directly beneath each filter disk was resected from control and treated CAM samples. Tissues were washed 3× with PBS, placed in 35-mm Petri dishes (Nalge Nunc), and examined under an SV6 stereomicroscope (Zeiss) at X50 magnification. Digital images of CAM sections exposed to filters were collected using a 3-charge-coupled device color video camera system (Toshiba) and analyzed with Image-Pro software (Media Cybernetics). The number of vessel branch points contained in a circular region equal to the area of each filter disk were counted. One image was counted in each CAM preparation, and findings from 8 to 10 CAM preparations were analyzed for each treatment condition (thyroid hormone or analogs, FGF2, FGF2 antibody, PD 98059). In addition, each experiment was performed 3 times. The resulting angiogenesis index is the mean±SEM of new branch points.

ECV304 endothelial cells = test: FGF2 release from ECV304 endothelial cells (ELISA); format: cell-based; conditions: T3 0.01 μmol/L, 3 days
Experimental: ECV304 endothelial cells were cultured in M199 medium supplemented with 10% fetal bovine serum. […] After 72 hours, the supernatants were harvested and assays for FGF performed without dilution using a commercial ELISA system (R&D Systems) (See Davis et al., Circ Res 94:1500-1506 (2004)).

[2] = system: matrigel plug angiogenesis; test: Mouse matrigel model of angiogenesis (plug hemoglobin); format: in vivo, mice (C57BL/6NCr)
Experimental: Normal male mice (C57BL/6NCr) 6-8 weeks of age and weighing ˜20 g were purchased from Taconic farm. Animals were housed 4 per cage, in controlled conditions of temperature (20-24° C.); humidity (60-70%) and 12 hrs. light/dark cycle provided with food and water ad libitum. […] Aliquots of matrigel were placed into cold polypropylene tubes to prevent the matrigel from solidifying and the angiogenesis promoter added to matrigel with or without agonist. Mice were treated daily. Matrigel was subcutaneously injected as triple injection per animal at 100 μL/animal. At day 14 post plug implant all animals were killed in CO2 chamber and matrigel plugs were collected. Plug hemoglobin content was analyzed from three implants/mice (n=6 per group) to measure angiogenesis.
The matrigel plugs dissected from the mice were carefully stripped of any remaining peritoneum. The plugs were placed into 0.5 mL tube of ddH2O and homogenized for 5-10 min. […] Absorbance was read with a Microplate Manager ELISA reader at 540 nm. […] Hemoglobin concentration is a reflection of the number of blood vessels in the plugs.

[3] = 10 μg/matrigel plug, day 14, n = 6-7
[4] = T4 + antagonist, each 10 μg/matrigel plug
[5] = FGF (1.25 μg/ml) + Tetrac or analog at 10 μg/plug
[6] = FGF (1.25 μg/ml) + Tetrac or analog at 10 μg/plug, n = 8
[7] = FGF 100 ng + Tetrac or analog 10 μg/plug
[8] = FGF 100 ng + Tetrac or analog 10 μg/plug, n = 7-14

`CC(C)[Si](OC(=O)Cc1cc(I)c(Oc2cc(I)c(OCC3CO3)c(I)c2)c(I)c1)(C(C)C)C(C)C` (centres unmarked) showed a melting point of 120 °C.
`CC(C)[Si](OC(=O)C(Cc1cc(I)c(Oc2cc(I)c(OCC3CO3)c(I)c2)c(I)c1)NC(=O)OC(C)(C)C)(C(C)C)C(C)C` (centres unmarked) (hydrate or solvate) gave a melting point of 109 °C.
With `CC(C)(C)OC(=O)NC(Cc1cc(I)c(Oc2cc(I)c(OCC3CO3)c(I)c2)c(I)c1)C(=O)OCC1CO1` (centres unmarked) (hydrate or solvate) [T4 analog 14, Oxiran-2-ylmethyl-2-(tert-butoxycarbonylamino)-3-(4-(3,5-diiodo-4-(oxiran-2-ylmethoxy)phenoxy)-3,5-diiodophenyl)propanoate] the melting point was 105 °C.
For `N[C@@H](Cc1cc(I)c(Oc2ccc(O)c(I)c2)c(I)c1)C(=O)O` [Compound T3, 3,5,3′-triiodo-L-thyronine], the “generation of new blood vessels from existing vessels promoted” value ([1]; 10^−7-10^−9M) was “two-to three-fold” and the “FGF2 (pg/mL/10^6 cells)” value (ECV304 endothelial cells) was 98.8 ± 0.5 pg/mL/10^6 cells.
In the case of `O=C(O)CCc1cc(I)c(Oc2ccc(O)cc2)c(I)c1` [DITPA, 3,5-diiodothyropropionic acid], the “ANGIOGENESIS INDEX” value ([1]; 0.01 uM) is reported as 133.0 ± 11.6, the “ANGIOGENESIS INDEX” value ([1]; 0.1 uM) is reported as 167.3 ± 12.7 and the “ANGIOGENESIS INDEX” value ([1]; 0.2 mM) is reported as 117.9 ± 5.6.
In the case of `Cc1cc(OCC(=O)O)cc(C)c1Cc1ccc(O)c(C(C)C)c1` [GC-1, 3,5-dimethyl-4-(4′-hydroxy-3′-isopropylbenzyl)-phenoxy acetic acid], the “ANGIOGENESIS INDEX” value ([1]; 0.01 uM) is reported as 169.6 ± 11.6 and the “ANGIOGENESIS INDEX” value ([1]; 0.1 uM) is reported as 152.7 ± 9.0.
In the case of `O=C(O)C(Cc1cc(I)c(Oc2cc(I)c(O)c(I)c2)c(I)c1)NC(c1ccccc1)(c1ccccc1)c1ccccc1` (centres unmarked) [PRIAB2], the “Branch pts ± SEM” value ([1]; 0.1 μM) is reported as 136.0 ± 18.1.
For `CNC(Cc1cc(I)c(Oc2cc(I)c(O)c(I)c2)c(I)c1)C(=O)O` (centres unmarked) [PRIAB6], the “Branch pts ± SEM” value ([1]; 0.1 μM) was 136.2 ± 12.4.
For `CCNC(Cc1cc(I)c(Oc2cc(I)c(O)c(I)c2)c(I)c1)C(=O)O` (centres unmarked) [PRIAB12], the “Branch pts ± SEM” value ([1]; 0.1 μM) was 121.7 ± 13.6.
With `CC(C)(C)OC(=O)NC(Cc1cc(I)c(Oc2cc(I)c(O)c(I)c2)c(I)c1)C(=O)O` (centres unmarked) [T4 analog 7, 2-[(Tert-butoxycarbonyl)amino]-3-[4-(4-hydroxy-3,5-diiodophenoxy)-3,5-diiodophenyl]propanoic acid] the “Branch pts ± SEM” value ([1]; 0.1 μM, before conjugation) was 173 ± 9.9.
In the case of `CNC(Cc1cc(I)c(Oc2cc(I)c(O)c(I)c2)c(I)c1)C(=O)[O-].O.O.[K+]` (centres unmarked) [T4 analog 10, Potassium 3-[4-(4-hydroxy-3,5-diiodophenoxy)-3,5-diiodophenyl]-2-(methylamino)propanoate dihydrate], the “Mean % of stimulation (comparing to PBS)” value ([1]; 0.1 μM) is reported as 43.8 ± 6.5%, the “Mean Branch points” value ([1]; 0.1 μM, mean ± SEM, n = 8) is reported as 105 ± 7 and the “Hemoglobin (mg/mL) ± SEM” value [2, 3] is reported as 0.8 ± 0.2 mg/mL. For the same molecule, the “Mean stimulation of angiogenesis (%)” value ([2]; 10 μg/matrigel plug, dihydrate) was 87% and 87 ± 33%.
With `CCNC(Cc1cc(I)c(Oc2cc(I)c(O)c(I)c2)c(I)c1)C(=O)O` (centres unmarked) [T4 analog 11, 2-(Ethylamino)-3-[4-(4-hydroxy-3,5-diiodophenoxy)-3,5-diiodophenyl]propanoic acid] the “effect on angiogenesis, representative illustrations (FIG. 23)” value [1] was “proangiogenesis effects”.
For `CCNC(Cc1cc(I)c(Oc2cc(I)c(O)c(I)c2)c(I)c1)C(=O)OCC` (centres unmarked) [T4 analog 12, Ethyl-2-(ethylamino)-3-[4-(4-hydroxy-3,5-diiodophenoxy)-3,5-diiodophenyl]propanoate], the “Mean Branch points” value ([1]; FGF (1.25 μg/ml) + 12 (0.1 μM)) was 46 ± 2, the “Mean % of stimulation (comparing to PBS)” value ([1]; FGF (1.25 μg/ml) + 12 (0.1 μM), (inhibition)) was −37.9 ± 4 (inhibition) % and the “effect on angiogenesis, representative illustrations (FIG. 23)” value [1] was “anti-angiogenic”. For the same molecule, the “Hemoglobin (mg/mL) ± SEM” value [2, 4] was 0.4 ± 0.1 mg/mL and the “Mean inhibition of angiogenesis (%)” value [2, 4] was 89 ± 11%.
In the case of `CC(C)[Si](OC(=O)C(Cc1cc(I)c(Oc2cc(I)c(O)c(I)c2)c(I)c1)NC(=O)OC(C)(C)C)(C(C)C)C(C)C` (centres unmarked) [T4 analog 13, Triisopropylsilyl-2-(tert-butoxycarbonylamino)-3-(4-(4-hydroxy-3,5-diiodophenoxy)-3,5-diiodophenyl)propanoate], the “Mean Branch points” value ([1]; 1 μM, mean ± SEM, n = 8) is reported as 76 ± 7, the “Mean % Inhibition” value [1, 5] is reported as 44 ± 13% and the “Mean Branch points” value [1, 6] is reported as 105 ± 7. For the same molecule, the change in vivo at 1 µM ([1]; Gallus gallus, topical, 1 μM, read-out: Mean % of stimulation (comparing to PBS)) was 4.1 ± 6.5%, the “Mean stimulation of angiogenesis (%)” value ([2]; 10 μg/matrigel plug) was 0 ± 17% and the “Hemoglobin (mg/mL) ± SEM” value [2, 3] was 0.3 ± 0.1 mg/mL.
In the case of `CC(C)(C)OC(=O)NC(Cc1cc(I)c(Oc2cc(I)c(OCC3CO3)c(I)c2)c(I)c1)C(=O)OCC1CO1` (centres unmarked) [T4 analog 14, Oxiran-2-ylmethyl-2-(tert-butoxycarbonylamino)-3-(4-(3,5-diiodo-4-(oxiran-2-ylmethoxy)phenoxy)-3,5-diiodophenyl)propanoate], the “Mean % of stimulation (comparing to PBS)” value ([1]; 1 μM) is reported as 56.2 ± 7.5%, the “Mean Branch points” value ([1]; 1 μM, mean ± SEM, n = 8) is reported as 114 ± 11 and the “Mean stimulation of angiogenesis (%)” value ([2]; 10 μg/matrigel plug) is reported as 0 ± 17%. For the same molecule, the “Hemoglobin (mg/mL) ± SEM” value [2, 3] was 0.3 ± 0.1 mg/mL.
With `CC(C)(C)OC(=O)Cc1cc(I)c(Oc2cc(I)c(O)c(I)c2)c(I)c1` [Tetrac analog 3, tert-Butyl-2-(4-(4-hydroxy-3,5-diiodophenoxy)-3,5-diiodophenyl)acetate] the “Mean inhibition of angiogenesis (%)” value [2, 7] was 95 ± 14%.
With `O=C(Cc1cc(I)c(Oc2cc(I)c(O)c(I)c2)c(I)c1)NC1CCCCC1` [Tetrac analog 4, N-cyclohexyl-2-(4-(4-hydroxy-3,5-diiodophenoxy)-3,5-diiodophenyl)acetamide] the “Mean % Inhibition” value [1, 5] was 15 ± 8%, the “Mean Branch points” value [1, 6] was 121 ± 4 and the “Mean inhibition of angiogenesis (%)” value [2, 7] was 104 ± 12%. The “Hemoglobin (mg/mL) ± SEM” value [2, 8] was 0.2 ± 0.1 mg/mL.
For `CC(C)[Si](OC(=O)Cc1cc(I)c(Oc2cc(I)c(O)c(I)c2)c(I)c1)(C(C)C)C(C)C` [Tetrac analog 5, Triisopropylsilyl-2-(4-(4-hydroxy-3,5-diiodophenoxy)-3,5-diiodophenyl)acetate], the “Mean % Inhibition” value [1, 5] was 75 ± 19%, the “Mean Branch points” value [1, 6] was 87 ± 11 and the “Mean inhibition of angiogenesis (%)” value [2, 7] was 104 ± 14%. For the same molecule, the “Hemoglobin (mg/mL) ± SEM” value [2, 8] was 0.2 ± 0.1 mg/mL and the melting point was 146 °C.
With `O=C(Cc1cc(I)c(Oc2cc(I)c(OCC3CO3)c(I)c2)c(I)c1)NC1CCCCC1` (centres unmarked) [Tetrac analog 6, N-cyclohexyl-2-(4-(3,5-diiodo-4-(oxiran-2-ylmethoxy)phenoxy)-3,5-diiodophenyl)acetamide] the “Mean inhibition of angiogenesis (%)” value [2, 7] was 80 ± 16%, the “Hemoglobin (mg/mL) ± SEM” value [2, 8] was 0.7 ± 0.1 mg/mL and the melting point was 242 °C.
With `O=C(Cc1cc(I)c(Oc2cc(I)c(OCC3CO3)c(I)c2)c(I)c1)OCC1CO1` (centres unmarked) [Tetrac analog 8, Oxiran-2-ylmethyl-2-(4-(3,5-diiodo-4-(oxiran-2-ylmethoxy)phenoxy)-3,5-diiodophenyl)acetate] the melting point was 116 °C.
With `O=C(Cc1cc(I)c(Oc2cc(I)c(OCCCl)c(I)c2)c(I)c1)NC1CCCCC1` [Tetrac analog 15, 2-(4-(4-(2-chloroethoxy)-3,5-diiodophenoxy)-3,5-diiodophenyl)-N-cyclohexylacetamide] the melting point was 263 °C.
With “FGF2: human recombinant FGF2, standard proangiogenic agent” the “ANGIOGENESIS INDEX” value ([1]; 1 uM) was 155 ± 9, the “Branch pts ± SEM” value ([1]; 1.25 μg/ml) was 137.9 ± 7.5 and the “Mean % of stimulation (comparing to PBS)” value ([1]; FGF 1.25 μg/mL) was 78.1 ± 7.5%. The “Mean Branch points” value ([1]; FGF 1.25 μg/mL) was 130 ± 11, the “increase in angiogenesis / branch formation” value ([1]; FGF2 (1 μg/mL)) was 2.2 fold and 2 fold and the “Mean Branch points” value ([1]; FGF (1.25 μg/ml) alone) was 130 ± 11. For the same molecule, the “Hemoglobin (mg/mL) ± SEM” value ([2]; FGF 100 ng alone) was 2.4 ± 0.4 mg/mL.
